Data: patent US9310353B2, “Method for evaluating bioavailable zinc” (The Procter & Gamble Company, priority 2014, dated 2016)
pKd: −log10 of the molar value. Marks after values point to notes of the source that are not given here.

Columns and labels:
[1] = read-out: Affinity Kd (Zn^2+); cited from earlier work
TR146 cells [2] = assay: Screening of Zn indicators by Zn uptake into TR146 cells (FLIPR); type: cell-based; settings: Zn indicators screened using TR146 cells
Protocol: As with most metal ions, the choice of indicator is dependent on the cell type, ion channel, and metal specificity.
(§1) To screen the Zn indicators, measurement of Zn uptake into TR146 cells was done using a FLIPR (Fluorescent Imaging Plate Reader) assay. The assay was established using a cell membrane permeable version of Zn-indicator, FluoZin-3 AM (Life Technologies, Grand Island, N.Y.). TR146 cells were grown to confluency in 15 ml growth medium [high glucose DMEM (Dulbecco's Modification of Eagle's Medium) supplemented with 10% FBS (fetal bovine serum), 100 units/ml penicillin and 100 μg/ml streptomycin in a 75 cm^2 flask for 3 days at 37° C. in a mammalian cell culture incubator set at 5% CO2. […] FluoZin-3 AM is a fluorescent dye used for quantifying intracellular Zn concentrations in the 1 to 100 nM to range. […] The pelleted cells were re-suspended in 10 ml assay buffer and 90 μl aliquots (˜50,000 cells) per well delivered to a 96-well assay plate and the plate was placed into a fluorometric imaging plate reader (FLIPR384 from Molecular Devices, Sunnyvale, Calif.) and basal fluorescence recorded (excitation wave length 494 nm and emission wave length 516 nm). Then Zn salt (for example Zn-lactate) was added and the increase in fluorescence was recorded for 5 minutes. […]

TR146 cells [3] = assay: Chelant effects on Zn flux via TR146 measurements (FLIPR); type: cell-based; settings: relative to the flux of the Zn lactate control; for 5 micro M Chelant Control / 50 micro M Chelant Control: chelant alone, no Zn
Source text: These combinations were then placed into growth media and measurement of Zn uptake into TR146 cells was done using a FLIPR (Fluorescent Imaging Plate Reader) assay, as described in EXAMPLE 2.

TR146 cells [4] = assay: Bioavailability of Zn from formulated dentifrices and rinses, Zn uptake by TR146 cells (FLIPR); type: cell-based; settings: 0.01% Dentifrices A-D tested on the TR146 cells; Zn Lactate Control = 100%
Protocol: as §1, with “Measurement of” for “To screen the Zn indicators, measurement of”, “of Zn dye,” for “of Zn-indicator,”, “grown” for “grown to confluency”, “CO2. Cells were detached with addition of 10 ml of PBS (phosphate buffered saline) and gentle hand shaking, and transferred to a 50 ml tube and centrifuged at 850 rpm for 3 minutes to remove PBS.” for “CO2.”, “plate is” for “plate was”

TR146 cells [5] = assay: Effects of cationic polymers and dentifrice binders on uptake of zinc lactate by TR146 cells; type: cell-based; settings: 50 μM Zn Lactate alone (reference)
Source text: After centrifugation, a pellet of cells was formed in the bottom of the tube separating them from the supernatant solution.

TR146 cells [6] = assay: Polyquats blocking Zn uptake into TR146 cells (FLIPR); type: cell-based; settings: Control Zn lactate
Protocol: Measurement of Zn uptake into TR146 cells was done using a FLIPR (Fluorescent Imaging Plate Reader) assay. The assay was established using a cell membrane permeable version of Zn dye, FluoZin-3 AM (Life Technologies, Grand Island, N.Y.). TR146 cells were grown in 15 ml growth medium [high glucose DMEM (Dulbecco's Modification of Eagle's Medium) supplemented with 10% FBS (fetal bovine serum), 100 units/ml penicillin and 100 μg/ml streptomycin in a 75 cm^2 flask for 3 days at 37° C. in a mammalian cell culture incubator set at 5% CO2. Cells were detached with addition of 10 ml of PBS (phosphate buffered saline) and gentle hand shaking, and transferred to a 50 ml tube and centrifuged at 850 rpm for 3 minutes to remove PBS. After centrifugation, a pellet of cells was formed in the bottom of the tube separating them from the supernatant solution. The supernatant was discarded and the cell pellet suspended in 1 ml of fresh growth medium to which 5 μl (12.5 μg) of FluoZin-3 AM Zn indicator was added and incubated for 30 minutes with gentle shaking. FluoZin-3 AM is a fluorescent dye used for quantifying intracellular Zn concentrations in the 1 to 100 nM to range. At the end of the 30 minutes, 45 ml of assay buffer [1×HBSS (Hank's Balanced Salt Solution), 20 mM HEPES (4-(2-Hydroxyethyl)-1-piperazineethanesulfonic acid)] was added to wash the cells and the resulting combination was then centrifuged at 850 rpm for 3 minutes to remove excess buffer and FluoZin-3 AM Zn indicator. The pelleted cells were re-suspended in 10 ml assay buffer and 90 μl aliquots (˜50,000 cells) per well delivered to a 96-well assay plate and the plate is placed into a fluorometric imaging plate reader (FLIPR384 from Molecular Devices, Sunnyvale, Calif.) and basal fluorescence recorded (excitation wave length 494 nm and emission wave length 516 nm). Then Zn salt (for example Zn-lactate) was added and the increase in fluorescence was recorded for 5 minutes. Zn-flux observed with different Zn salts with Zn-lactate value as reference (100%) is shown below in TABLE 2. […]

TR146 cells [7] = assay: Flux of Zn salts in TR146 cells (FLIPR, FluoZin-3 AM); type: cell-based; settings: for % of Zn Lactate Flux: Zn-lactate = 100%
Protocol: Measurement of Zn uptake into TR146 cells was done using a FLIPR (Fluorescent Imaging Plate Reader) assay. The assay was established using a cell membrane permeable version of Zn dye, FluoZin-3 AM (Life Technologies, Grand Island, N.Y.). TR146 cells were grown in 15 ml growth medium [high glucose DMEM (Dulbecco's Modification of Eagle's Medium) supplemented with 10% FBS (fetal bovine serum), 100 units/ml penicillin and 100 μg/ml streptomycin in a 75 cm^2 flask for 3 days at 37° C. in a mammalian cell culture incubator set at 5% CO2. Cells were detached with addition of 10 ml of PBS (phosphate buffered saline) and gentle hand shaking, and transferred to a 50 ml tube and centrifuged at 850 rpm for 3 minutes to remove PBS. After centrifugation, a pellet of cells was formed in the bottom of the tube separating them from the supernatant solution. The supernatant was discarded and the cell pellet suspended in 1 ml of fresh growth medium to which 5 μl (12.5 μg) of FluoZin-3 AM Zn indicator was added and incubated for 30 minutes with gentle shaking. FluoZin-3 AM is a fluorescent dye used for quantifying intracellular Zn concentrations in the 1 to 100 nM to range. At the end of the 30 minutes, 45 ml of assay buffer [1×HBSS (Hank's Balanced Salt Solution), 20 mM HEPES (4-(2-Hydroxyethyl)-1-piperazineethanesulfonic acid)] was added to wash the cells and the resulting combination was then centrifuged at 850 rpm for 3 minutes to remove excess buffer and FluoZin-3 AM Zn indicator. The pelleted cells were re-suspended in 10 ml assay buffer and 90 μl aliquots (˜50,000 cells) per well delivered to a 96-well assay plate and the plate is placed into a fluorometric imaging plate reader (FLIPR384 from Molecular Devices, Sunnyvale, Calif.) and basal fluorescence recorded (excitation wave length 494 nm and emission wave length 516 nm). Then Zn salt (for example Zn-lactate) was added and the increase in fluorescence was recorded for 5 minutes. Zn-flux observed with different Zn salts with Zn-lactate value as reference (100%) is shown below in TABLE 2.

TR146 cells [8] = assay: Competitive inhibition of Zn flux from zinc chloride by amine polymers in TR146 cells; type: cell-based; settings: ZnCl2 140 uM alone (reference)
Protocol: as §1, with “Measurement of” for “To screen the Zn indicators, measurement of”, “of Zn dye,” for “of Zn-indicator,”, “grown” for “grown to confluency”, “CO2. Cells were detached with addition of 10 ml of PBS (phosphate buffered saline) and gentle hand shaking, and transferred to a 50 ml tube and centrifuged at 850 rpm for 3 minutes to remove PBS.” for “CO2.”, “plate is” for “plate was”

[9] = Zn salt concentration Saturated

In the case of COc1ccc(N(CC(=O)O)CC(=O)O)c(OCCOc2cc(-c3c4cc(F)c(=O)cc-4oc4cc(O)c(F)cc34)ccc2NCC(=O)O)c1 [FluoZin-3], the pKd [1] is listed as 7.82 and the “affinity for the flux of Zn into the TR146 cell line” value (TR146 cells [2]) is listed as “most affinity for the flux of Zn into the TR146 cell line”.

For O=P(O)(O)O[C@H]1[C@H](OP(=O)(O)O)[C@@H](OP(=O)(O)O)[C@H](OP(=O)(O)O)[C@@H](OP(=O)(O)O)[C@H]1OP(=O)(O)O [Phytic acid], the “5 micro M Chelant Control” value (TR146 cells [3]) was 0.00%, the “50 micro M Chelant Control” value (TR146 cells [3]) was 0.00% and the “Zn flux, 5 micro M Chelant + 5 micro M Zn lactate” value (TR146 cells [3]) was 20.07%. For the same compound, the “Zn flux, 50 micro M Chelant + 50 micro M Zn lactate” value (TR146 cells [3]) was 33.87%.

For O=C([O-])[C@H](O)[C@@H](O)[C@H](O)[C@H](O)CO.[Na+] [Sodium D-gluconate], the “5 micro M Chelant Control” value (TR146 cells [3]) was 1.51%, the “50 micro M Chelant Control” value (TR146 cells [3]) was 0.00% and the “Zn flux, 5 micro M Chelant + 5 micro M Zn lactate” value (TR146 cells [3]) was 101.31%. The “Zn flux, 50 micro M Chelant + 50 micro M Zn lactate” value (TR146 cells [3]) was 112.99%.

In the case of O=P1([O-])OP(=O)([O-])OP(=O)([O-])OP(=O)([O-])OP(=O)([O-])OP(=O)([O-])O1.[Na+].[Na+].[Na+].[Na+].[Na+].[Na+] [Sodium Hexametaphosphate], the “50 micro M Chelant Control” value (TR146 cells [3]) was 0.00%, the “Zn flux, 5 micro M Chelant + 5 micro M Zn lactate” value (TR146 cells [3]) was 105.02% and the “Zn flux, 50 micro M Chelant + 50 micro M Zn lactate” value (TR146 cells [3]) was 63.81%*.

With O=P([O-])(O)OP(=O)([O-])O.[Na+].[Na+] [Sodium acid pyrophosphate] the “5 micro M Chelant Control” value (TR146 cells [3]) was 0.00%, the “50 micro M Chelant Control” value (TR146 cells [3]) was 0.00% and the “Zn flux, 5 micro M Chelant + 5 micro M Zn lactate” value (TR146 cells [3]) was 82.87%. The “Zn flux, 50 micro M Chelant + 50 micro M Zn lactate” value (TR146 cells [3]) was 0.00% and the “Zn flux, 50 micro M Chelant + 50 micro M Zn lactate” value (TR146 cells [3]; listed as sodium acid pyrophosphate) was “did not allow for any measureable levels of Zn to be detected”.

For O=C([O-])CC(O)(CC(=O)[O-])C(=O)[O-].[Na+].[Na+].[Na+] [Sodium citrate], the “5 micro M Chelant Control” value (TR146 cells [3]) was 0.00%, the “50 micro M Chelant Control” value (TR146 cells [3]) was 0.00% and the “Zn flux, 5 micro M Chelant + 5 micro M Zn lactate” value (TR146 cells [3]) was 104.83%. For the same compound, the “Zn flux, 50 micro M Chelant + 50 micro M Zn lactate” value (TR146 cells [3]) was 43.63%.

For O=P(O)(O)OP(=O)(O)OP(=O)(O)O [Sodium tripolyphosphate], the “5 micro M Chelant Control” value (TR146 cells [3]) was 0.00%, the “50 micro M Chelant Control” value (TR146 cells [3]) was 0.00% and the “Zn flux, 5 micro M Chelant + 5 micro M Zn lactate” value (TR146 cells [3]) was 92.99%. For the same compound, the “Zn flux, 50 micro M Chelant + 50 micro M Zn lactate” value (TR146 cells [3]) was 0.00% and the “Zn flux, 50 micro M Chelant + 50 micro M Zn lactate” value (TR146 cells [3]; listed as sodium tripolyphosphate) was “did not allow for any measureable levels of Zn to be detected”.

For CC(O)C(=O)[O-].CC(O)C(=O)[O-].[Zn+2] (centres unmarked) [Zn Lactate], the “Zn flux, Zn Only” value (TR146 cells [3]; No chelant, 50 micro M Zn Lactate) was 100%*, the “% of Zn Lactate Control (% Zn uptake by TR146 cells)” value (TR146 cells [4]) was 100% and the “Fluorescence Units (percentage of zinc lactate)” value (TR146 cells [5]) was 100%. For the same compound, the “Fluorescent Counts with no Zn” value (TR146 cells [6]; no quat) was 24.5, the “Fluorescent counts with Zn” value (TR146 cells [6]; no quat) was 1774.8 and the “% Reduction compared to Zn control” value (TR146 cells [6]; no quat (reference)) was 0%.

In the case of CC(=O)[O-].CC(=O)[O-].[Zn+2] [ZnAcetate], the “Fluorescence Unit” value (TR146 cells [7]; Zn salt concentration 10 uM) was 48547.79 and the “% of Zn Lactate Flux” value (TR146 cells [7]; Zn salt concentration 10 uM) was 102.72%.

For [Cl-].[Cl-].[Zn+2] [ZnCl2], the “Fluorescence Unit” value (TR146 cells [7]; Zn salt concentration 1 mM) was 47853.41, the “% of Zn Lactate Flux” value (TR146 cells [7]; Zn salt concentration 1 mM) was 101.25% and the “Zn Flux as a percentage of the Zn Chloride Control” value (TR146 cells [8]) was 100%.

In the case of NCC(=O)[O-].NCC(=O)[O-].[Zn+2] [ZnGlycinate], the “Fluorescence Unit” value (TR146 cells [7]; Zn salt concentration 4.40%) was 41086.61 and the “% of Zn Lactate Flux” value (TR146 cells [7]; Zn salt concentration 4.40% (206 mM)) was 86.93%.

For O=C([O-])C(=O)[O-].[Zn+2] [ZnOxalate], the “Fluorescence Unit” value (TR146 cells [7]; [9]) was 55389.93 and the “% of Zn Lactate Flux” value (TR146 cells [7]; [9]) was 117.2%.

With [O-2].[Zn+2] [ZnOxide] the “Fluorescence Unit” value (TR146 cells [7]; [9]) was 50391.21 and the “% of Zn Lactate Flux” value (TR146 cells [7]; [9]) was 106.62%.

For O=P([O-])([O-])[O-].O=P([O-])([O-])[O-].[Zn+2].[Zn+2].[Zn+2] [ZnPhosphate], the “Fluorescence Unit” value (TR146 cells [7]; [9]) was 49686.65 and the “% of Zn Lactate Flux” value (TR146 cells [7]; [9]) was 105.13%.

With [O-][n+]1ccccc1[S-].[O-][n+]1ccccc1[S-].[Zn+2] [ZnPyrithione] the “Fluorescence Unit” value (TR146 cells [7]; Zn salt concentration 10 mM) was 50467.87 and the “% of Zn Lactate Flux” value (TR146 cells [7]; Zn salt concentration 10 mM) was 106.78%.

For O=S(=O)([O-])[O-].[Zn+2] [ZnSO4], the “Fluorescence Unit” value (TR146 cells [7]; Zn salt concentration 1 mM) was 47853.41 and the “% of Zn Lactate Flux” value (TR146 cells [7]; Zn salt concentration 1 mM) was 101.25%.
